Holding throughout (format): cell-based
The target of test [1] is T1, RAF proto-oncogene serine/threonine-protein kinase (Homo sapiens, UniProt P04049). The test can be described thus: Inhibition of RAF in human WM3629 cells assessed as ERK phosphorylation at Thr202/Tyr204 residue incubated for 6 hrs by HTRF assay.
Test [2] has as its target T1, RAF proto-oncogene serine/threonine-protein kinase. The test is described as follows: Inhibition of RAF in human A-375 cells assessed as ERK phosphorylation at Thr202/Tyr204 residue incubated for 6 hrs by HTRF assay. Background: In TR-FRET formats the signal depends on donor and acceptor labels being close together.
Test [3] relates to Protein cereblon/Serine/threonine-protein kinase B-raf (Homo sapiens), P15056+Q96SW2 [V600E]. The test can be described thus: Protac activity at E3 ubiquitin-protein ligase/BRAF V600E mutant in human T-REx-293 cells assessed as maximal BRAF degradation incubated for 24 hrs by plate reader assay.
Test [4] addresses Protein cereblon/Serine/threonine-protein kinase B-raf (Homo sapiens, UniProt P15056+Q96SW2, G466V). The test is described as follows: Protac activity at E3 ubiquitin-protein ligase/BRAF G466V mutant in human T-REx-293 cells assessed as BRAF degradation incubated for 24 hrs by plate reader assay.
The test system of test [5] is Protein cereblon/Serine/threonine-protein kinase B-raf (Homo sapiens), P15056+Q96SW2 [G466V]. The test is described as follows: Protac activity at E3 ubiquitin-protein ligase/BRAF G466V mutant in human T-REx-293 cells assessed as maximal BRAF degradation incubated for 24 hrs by plate reader assay.
Test [6] concerns the target Protein cereblon/Serine/threonine-protein kinase B-raf (Homo sapiens, UniProt P15056+Q96SW2, V600E). The test is described as follows: Protac activity at E3 ubiquitin-protein ligase/BRAF V600E mutant in human T-REx-293 cells assessed as BRAF degradation incubated for 24 hrs by plate reader assay.

T1 sequence (P04049 whole entry): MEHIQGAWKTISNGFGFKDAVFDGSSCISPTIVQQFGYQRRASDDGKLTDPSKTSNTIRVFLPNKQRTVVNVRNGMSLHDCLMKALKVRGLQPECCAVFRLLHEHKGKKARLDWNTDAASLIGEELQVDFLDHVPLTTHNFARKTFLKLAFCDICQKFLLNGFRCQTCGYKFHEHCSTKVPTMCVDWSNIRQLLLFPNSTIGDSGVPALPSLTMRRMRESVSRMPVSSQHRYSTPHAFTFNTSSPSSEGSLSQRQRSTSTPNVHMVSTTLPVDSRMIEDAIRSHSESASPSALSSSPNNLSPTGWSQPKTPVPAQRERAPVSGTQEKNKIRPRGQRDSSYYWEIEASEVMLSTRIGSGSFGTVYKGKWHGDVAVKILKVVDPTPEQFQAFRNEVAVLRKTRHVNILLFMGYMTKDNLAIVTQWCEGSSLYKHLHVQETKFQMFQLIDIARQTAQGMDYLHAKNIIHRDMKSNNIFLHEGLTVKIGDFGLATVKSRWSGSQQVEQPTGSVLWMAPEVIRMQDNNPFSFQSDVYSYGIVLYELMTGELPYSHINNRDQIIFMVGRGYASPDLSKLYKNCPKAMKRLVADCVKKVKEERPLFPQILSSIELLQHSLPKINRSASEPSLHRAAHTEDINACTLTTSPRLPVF
Sequence of Protein cereblon/Serine/threonine-protein kinase B-raf (Homo sapiens, UniProt P15056+Q96SW2, V600E) (P15056 2-766 V600E limits assumed, stated change not applied): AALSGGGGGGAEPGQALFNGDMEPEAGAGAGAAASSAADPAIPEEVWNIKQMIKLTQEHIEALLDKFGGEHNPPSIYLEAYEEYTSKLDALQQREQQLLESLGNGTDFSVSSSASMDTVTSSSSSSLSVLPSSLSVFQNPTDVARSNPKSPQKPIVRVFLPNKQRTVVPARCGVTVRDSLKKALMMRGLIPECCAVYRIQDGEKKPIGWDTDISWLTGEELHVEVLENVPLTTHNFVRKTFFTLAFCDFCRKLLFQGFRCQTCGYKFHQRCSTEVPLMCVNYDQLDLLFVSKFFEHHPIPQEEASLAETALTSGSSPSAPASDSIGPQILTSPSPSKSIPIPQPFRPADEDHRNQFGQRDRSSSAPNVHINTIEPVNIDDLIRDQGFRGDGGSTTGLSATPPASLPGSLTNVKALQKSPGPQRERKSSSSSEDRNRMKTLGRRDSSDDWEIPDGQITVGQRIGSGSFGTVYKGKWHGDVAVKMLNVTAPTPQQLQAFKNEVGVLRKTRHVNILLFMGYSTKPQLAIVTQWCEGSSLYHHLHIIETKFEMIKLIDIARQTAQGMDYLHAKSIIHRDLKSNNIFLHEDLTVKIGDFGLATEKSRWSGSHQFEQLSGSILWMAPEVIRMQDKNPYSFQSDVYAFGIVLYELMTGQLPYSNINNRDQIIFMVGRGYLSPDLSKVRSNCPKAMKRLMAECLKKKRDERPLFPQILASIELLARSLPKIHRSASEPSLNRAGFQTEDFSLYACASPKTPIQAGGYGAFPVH
Sequence of Protein cereblon/Serine/threonine-protein kinase B-raf (Homo sapiens, UniProt P15056+Q96SW2, V600E) (Q96SW2 whole entry, stated change not applied): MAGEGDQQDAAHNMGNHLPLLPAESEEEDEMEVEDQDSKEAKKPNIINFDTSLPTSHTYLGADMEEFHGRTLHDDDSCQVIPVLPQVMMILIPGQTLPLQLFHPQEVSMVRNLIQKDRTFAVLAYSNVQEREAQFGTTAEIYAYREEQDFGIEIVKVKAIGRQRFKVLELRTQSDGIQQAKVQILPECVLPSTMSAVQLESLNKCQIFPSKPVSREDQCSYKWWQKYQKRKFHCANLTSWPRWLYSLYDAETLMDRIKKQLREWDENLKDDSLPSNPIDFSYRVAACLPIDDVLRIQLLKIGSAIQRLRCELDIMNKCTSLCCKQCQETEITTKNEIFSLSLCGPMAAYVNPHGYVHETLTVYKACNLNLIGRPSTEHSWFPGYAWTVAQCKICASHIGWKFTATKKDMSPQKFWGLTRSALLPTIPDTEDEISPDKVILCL

The IC50 is the concentration needed to halve the response being measured. Regarding `Cc1ccc(NC(=O)N2CC[C@@H](CC(F)(F)F)C2)cc1-c1cnc(OCCN2CCN(c3ccc4c(c3)C(=O)N(C3CCC(=O)NC3=O)C4=O)CC2)c(N2CCOCC2)c1` (some centres not stated), the 50% inhibitory concentration (IC50) in test [1] is 10 nM; in test [2] it was 100 nM.
Usually Emax stands for the size of the effect at its maximum, as opposed to the concentration needed. One may read the DC50 as the concentration at which degradation of the target reaches its halfway point. On to `COc1cc(N2CCC(CN3CCC4(CC3)CCN(c3ccc(-c5cnc6[nH]cc(C(=O)c7c(F)ccc(NS(=O)(=O)N8CC[C@@H](F)C8)c7F)c6c5)cc3)CC4)CC2)cc2c1C(=O)N(C1CCC(=O)NC1=O)C2` (some centres not stated), for which the Emax in test [3] and in test [5] was 35% throughout. For the same molecule, the DC50 in test [4] was 1 nM; in test [6], no more than 5 nM.
For the molecule `Cc1ncc(NC(=O)N2CC[C@@H](CC(F)(F)F)C2)cc1-c1cnc(OCCN2CCN(c3ccc4c(c3)C(=O)N(C3CCC(=O)NC3=O)C4=O)CC2)c(N2CCOCC2)c1` (some centres not stated), the IC50 in test [1] is 10 nM; in test [2] it was 1000 nM.
As to `O=C1CCC(N2Cc3cc(N4CCC(CN5CC6(CCN(c7ncc(-c8cnc9[nH]cc(C(=O)c%10c(F)ccc(NS(=O)(=O)N%11CC[C@@H](F)C%11)c%10F)c9c8)cn7)C6)C5)CC4)ccc3C2=O)C(=O)N1` (some centres not stated), the Emax in test [3] is 35%; in test [5], greater than 70%. Further, the results for the half-maximal degradation concentration (DC50) in test [4] and in test [6] were 1 nM and no more than 5 nM, respectively.
